{
  "source": "patent US11766430B2",
  "about": "“Methods of using a phenoxypropylamine compound to treat pain” (Minerva Neurosciences, Inc., priority 2018, dated 2023)",
  "format_in_all_cases": "in vivo, Male Sprague Dawley rats",
  "key": {"[1]": {"system": "paclitaxel-induced peripheral neuropathic pain in rats", "experiment": "Prevention of paclitaxel-induced peripheral neuropathic pain, paw withdrawal threshold, chronic administration (Example 6)", "conditions": "for PWT compared to vehicle (in words): days 10 and 14", "procedure": "(§1) Male Sprague Dawley rats from Envigo were used in the study. Animals were received at approximately 250 g and housed 3 per cage upon arrival. All rats were examined, handled, and weighed prior to initiation of the study to assure adequate health and suitability. During the course of the study, 12/12 light/dark cycles was maintained. The room temperature was be maintained between 20 and 23° C. with a relative humidity maintained around 50%. Chow and water was provided ad libitum for the duration of the study. All testing was performed during the animal's light cycle phase.\nPaclitaxel (2 mg/kg) was purchased from Biolyse Pharma and injected i.p. on four alternate days (day 1, 3, 5 and 7) for a total of 4 injections at a dose volume of 1 mL/kg.\nGabapentin (100 mg/kg) was dissolved in saline and administered orally at a dose volume of 1 mL/kg. For prevention study, gabapentin was administered on day 14, sixty minutes prior to test. For reversal study, gabapentin was administered once daily for 2 weeks. On test days it was administered 60 minutes prior to test.\nPrevention study: MIN-117 (10 mg/kg) was formulated in 0.5% (w/v) hydroxypropylmethyl cellulose (HPMC) 8°-120 centipoises in water and was administered i.p once daily for 7 or 14 days at a dose volume of 1 mL/kg. On test days, MIN-117 was administered 2 hours prior to test.\nRats were administered paclitaxel (2 mg/kg) on four alternate days (days 1, 3, 5 and 7). Baseline and post treatment Paw Withdrawal Threshold (PWT) were evaluated using von Frey filaments (Semmes-Weinstein filaments, Stoelting, Wood Dale, Ill., USA) of varying stiffness (0.4, 0.7, 1.2, 2.0, 3.6, 5.5, 8.5, 10, 15, 26 g). Animals were placed on a perforated metallic platform and allowed to acclimate to their surroundings for a minimum of 15 minutes before each test session. Each filament was presented perpendicular to the plantar surface with sufficient force to cause slight buckling against the paw, and then held until a positive response is noted (paw sharply withdrawn). As described by Chaplan et al. 1994, once the threshold was crossed, the 2 responses straddling the threshold are retrospectively designated as the first 2 responses. Four additional responses were measured to stimuli varied sequentially up or down based on the animal's response. […] The parameter k is from the Appendix 1 in Chaplan and was determined by the pattern of the von Frey responses (e.g. OXOXOX where ‘O’ indicates no response and ‘X’ denotes a withdrawal). […]\nPWT was measured according to the Schematics in FIG. 9 (prevention) and FIG. 10 (reversal study).\nData was analyzed by analysis of variance (ANOVA) followed by post-hoc comparisons where appropriate. […]"}, "[2]": {"experiment": "Body weight, prevention study (Example 6)", "conditions": "10 mg/kg i.p. once daily for 7 or 14 days; effect seen from day 2 until day 11", "procedure": "Body weight (BW) was measured daily during treatment and twice a week after cessation of dosing.\nData was analyzed by analysis of variance (ANOVA) followed by post-hoc comparisons where appropriate. An effect will be considered significant if p<0.05. Data was represented as the mean and standard error to the mean (s.e.m). Statistical outliers that fell above or below 2 standard deviations of the mean were identified but not removed from the final analysis."}, "[3]": {"experiment": "Body weight during the chemotherapy induced neuropathic pain study (Example 5)", "conditions": "paclitaxel days 1, 3, 5, 7; test compound on day 14; repeated measures ANOVA", "procedure": "as §1, with “(from Envigo, Ind., USA)” for “from Envigo”, “12 h/12 h” for “12/12”, “phase. Every effort was made to minimize suffering of animals. Rats with baseline PWT less than 12 g were not included in the study. Rats were balanced by body weight and by their pre-paclitaxel PWT values. ANOVA found no significant differences between the treatment groups.” for “phase.”"}},
  "note": "Entries after “also recorded” stand apart in the source; their conditions may differ.",
  "data": [
    {"compound": "Cc1nnc(-c2cc3c(OC[C@@H](O)CN4CCC(c5ccc(Cl)c(Cl)c5)CC4)cccc3o2)o1.Cl", "note": "[MIN-117, (2S)-1-(4-(3,4-dichlorophenyl)piperidin-1-yl)-3-((2-(5-methyl-1,3,4-oxadiazol-2-yl)benzofuran-4-yl)oxy)propan-2-ol hydrochloride]", "values": [
      {"measurement": "PWT after cessation of treatment (in words)", "setting": "[1]; 10 mg/kg i.p. for 7 or 14 days, day 21, one week or two weeks after cessation of treatment, hydrochloride", "value": "no analgesic effects; also recorded: returned to vehicle levels"},
      {"measurement": "PWT compared to vehicle (in words)", "setting": "[1]; 10 mg/kg i.p. once daily for one week (7 days) starting one day prior to paclitaxel", "value": "significantly higher PWT"},
      {"measurement": "PWT compared to vehicle (in words)", "setting": "[1]; 10 mg/kg i.p. once daily for two weeks (14 days) starting one day prior to paclitaxel, 2 hours post dosing", "value": "significantly higher PWT"},
      {"measurement": "Body weight compared to vehicle (in words)", "setting": "[2]", "value": "decrease in body weight"},
      {"measurement": "Body weight during the study, between groups (in words)", "setting": "[3]", "value": "no significant difference between groups"}
    ]}
  ]
}
